Measurements reported in US6737383B1, “Herbicidal oxadiazolidines” (priority 1999, dated 2004).

Key:
bedstraw = assay: Test B pre/postemergence bedstraw; assay type: in vivo, Galium aparine; details: for Bedstraw plant response rating: Rate 62 g/ha
Outline: (§1)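 Herbicidal effect was estimated by eye on a ten-point control scale after plants spent twelve to sixteen days in a greenhouse following soil or foliar treatment. Foliar sprays targeted plants at one to four leaves; all doses were formulated in a non-phytotoxic solvent with surfactant.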

blackgrass = assay: Test B pre/postemergence blackgrass; assay type: in vivo, Alopecurus myosuroides
Outline: as §1

surinam grass = assay: Test B pre/postemergence surinam grass; assay type: in vivo, Brachiaria decumbens
Outline: as §1

cocklebur = assay: Test B pre/postemergence cocklebur; assay type: in vivo, Xanthium strumarium
Outline: as §1

corn = assay: Test B pre/postemergence corn; assay type: in vivo, Zea mays
Outline: as §1

crabgrass = assay: Test B pre/postemergence crabgrass; assay type: in vivo, Digitaria sanguinalis
Outline: as §1

giant foxtail = assay: Test B pre/postemergence giant foxtail; assay type: in vivo, Setaria faberii
Outline: as §1

morningglory = assay: Test B pre/postemergence morningglory; assay type: in vivo, Ipomoea hederacea
Outline: as §1

pigweed = assay: Test B pre/postemergence pigweed; assay type: in vivo, Amaranthus retroflexus
Outline: as §1

rape = assay: Test B pre/postemergence rape; assay type: in vivo, Brassica napus; details: for Rape plant response rating: Rate 62 g/ha
Outline: as §1

soybean = assay: Test B pre/postemergence soybean; assay type: in vivo, Glycine max
Outline: as §1

sugar beet = assay: Test B pre/postemergence sugar beet; assay type: in vivo, Beta vulgaris
Outline: as §1

velvetleaf = assay: Test B pre/postemergence velvetleaf; assay type: in vivo, Abutilon theophrasti
Outline: as §1

wheat = assay: Test B pre/postemergence wheat; assay type: in vivo, Triticum aestivum
Outline: as §1

wild oat = assay: Test B pre/postemergence wild oat; assay type: in vivo, Avena fatua
Outline: as §1

purple nutsedge = assay: Test B pre/postemergence purple nutsedge; assay type: in vivo, Cyperus rotundus
Outline: as §1

rice = assay: Test B flood test rice; assay type: in vivo, Oryza sativa
Outline: (§2)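 Each value is a visual injury score relative to controls, with 10 meaning complete control and 0 no effect. Evaluation took place twelve to sixteen days after the 2-leaf-stage plants were treated and kept in the greenhouse.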

smallflower flatsedge = assay: Test B flood test smallflower flatsedge; assay type: in vivo, Cyperus difformis
Outline: as §2

duck salad = assay: Test B flood test duck salad; assay type: in vivo, Heteranthera limosa
Outline: as §2

bamyardgrass = assay: Test B flood test barnyardgrass; assay type: in vivo, Echinochloa crus-galli
Outline: as §2

[1] = Postemergence, Rate 125 g/ha, scale 0 to 10, 0 is no effect, 10 is complete control
[2] = Preemergence, scale of 0 to 10 where 0 is no effect and 10 is complete control
[3] = Postemergence, scale 0 to 10 (0 no effect, 10 complete control)
[4] = Preemergence, Rate 62 g/ha, scale of 0 to 10 where 0 is no effect and 10 is complete control
[5] = Preemergence, Rate 250 g/ha, scale of 0 to 10 where 0 is no effect and 10 is complete control
[6] = Preemergence, Rate 500 g/ha, scale of 0 to 10 where 0 is no effect and 10 is complete control
[7] = Rate 62 g/ha, Postemergence, scale 0 to 10 (0 no effect, 10 complete control)
[8] = Rate 250 g/ha, Postemergence, scale of 0 to 10 where 0 is no effect and 10 is complete control
[9] = Rate 500 g/ha, Postemergence, scale 0 to 10, 0 no effect, 10 complete control
[10] = Rate 62 g/ha, headed Pre-emergence (flood test species), scale 0 to 10 (0 no effect, 10 complete control)
[11] = Rate 125 g/ha, Pre-emergence, flood test species, scale 0 to 10 where 0 is no effect and 10 is complete control
[12] = Rate 250 g/ha, Pre-emergence, flood-test species, scale 0 to 10, 0 is no effect, 10 is complete control
[13] = Rate 500 g/ha, Pre-emergence, flood test species, scale 0 to 10 (0 no effect, 10 complete control)

## CC(C)N(C(=O)n1oc(=O)n(-c2ccc3ccccc3c2)c1=O)c1ccc(F)cc1 [Compound 329]
bedstraw; [1]
  Plant response rating, Bedstraw: 0
bedstraw; [2]
  Bedstraw plant response rating: 0
bedstraw; Preemergence, Rate 125 g/ha
  Bedstraw plant response rating (0 to 10 scale): 0
bedstraw; [3]
  Bedstraw plant response rating: 0
blackgrass; [1]
  Plant response rating, Blackgrass: 0
blackgrass; [4]
  Blackgrass plant response rating: 0
blackgrass; Preemergence, Rate 125 g/ha
  Blackgrass plant response rating (0 to 10 scale): 0
blackgrass; [5]
  Blackgrass plant response rating: 0
blackgrass; [6]
  Blackgrass plant response rating: 0
blackgrass; [7]
  Blackgrass plant response rating: 0
blackgrass; [8]
  Plant response rating, Blackgrass: 0
blackgrass; [9]
  Plant response rating, Blackgrass: 0
Surinam grass; [1]
  Plant response rating, B. signalgrass: 0
Surinam grass; [4]
  B. signalgrass plant response rating: 0
Surinam grass; Preemergence, Rate 125 g/ha
  B. signalgrass plant response rating (0 to 10 scale, 0 is no effect, 10 is complete control): 0
Surinam grass; [5]
  B. signalgrass plant response rating: 0
Surinam grass; [6]
  B. signalgrass plant response rating: 0
Surinam grass; [7]
  B. signalgrass plant response rating: 0
Surinam grass; [8]
  Plant response rating, B. signalgrass: 0
Surinam grass; [9]
  Plant response rating, B. signalgrass: 0
cocklebur; [1]
  Plant response rating, Cocklebur: 0
cocklebur; [4]
  Cocklebur plant response rating: 0
cocklebur; Preemergence, Rate 125 g/ha
  Cocklebur plant response rating (0 to 10 scale): 0
cocklebur; [5]
  Cocklebur plant response rating: 0
cocklebur; [6]
  Cocklebur plant response rating: 0
cocklebur; [7]
  Cocklebur plant response rating: 0
cocklebur; [9]
  Plant response rating, Cocklebur: 4
corn; [1]
  Plant response rating, Corn: 0
corn; [4]
  Corn plant response rating: 0
corn; Preemergence, Rate 125 g/ha
  Corn plant response rating (0 to 10 scale): 0
corn; [5]
  Corn plant response rating: 0
corn; [6]
  Corn plant response rating: 0
corn; [7]
  Corn plant response rating: 0
corn; [9]
  Plant response rating, Corn: 0
crabgrass; [1]
  Plant response rating, Crabgrass: 0
crabgrass; [4]
  Crabgrass plant response rating: 0
crabgrass; Preemergence, Rate 125 g/ha
  Crabgrass plant response rating (0 to 10 scale): 0
crabgrass; [5]
  Crabgrass plant response rating: 0
crabgrass; [6]
  Crabgrass plant response rating: 3
crabgrass; [7]
  Crabgrass plant response rating: 0
crabgrass; [9]
  Plant response rating, Crabgrass: 0
Giant foxtail; [1]
  Plant response rating, Giant foxtail: 0
Giant foxtail; [4]
  Giant foxtail plant response rating: 0
Giant foxtail; Preemergence, Rate 125 g/ha
  Giant foxtail plant response rating (0 to 10 scale): 0
Giant foxtail; [5]
  Giant foxtail plant response rating: 0
Giant foxtail; [6]
  Giant foxtail plant response rating: 3
Giant foxtail; [7]
  Giant foxtail plant response rating: 0
Giant foxtail; [9]
  Plant response rating, Giant foxtail: 0
morningglory; [1]
  Plant response rating, Morningglory: 0
morningglory; [4]
  Morningglory plant response rating: 0
morningglory; Preemergence, Rate 125 g/ha
  Morningglory plant response rating (0 to 10 scale): 0
morningglory; [5]
  Morningglory plant response rating: 0
morningglory; [6]
  Morningglory plant response rating: 0
morningglory; [7]
  Morningglory plant response rating: 0
morningglory; [9]
  Plant response rating, Morningglory: 0
pigweed; [1]
  Plant response rating, Redroot pigweed: 0
pigweed; [4]
  Redroot pigweed plant response rating: 0
pigweed; Preemergence, Rate 125 g/ha
  Redroot pigweed plant response rating (0 to 10 scale): 0
pigweed; [5]
  Redroot pigweed plant response rating: 0
pigweed; [6]
  Redroot pigweed plant response rating: 0
pigweed; [7]
  Redroot pigweed plant response rating: 0
pigweed; [9]
  Plant response rating, Redroot pigweed: 0
rape; [1]
  Plant response rating, Rape: 0
rape; [2]
  Rape plant response rating: 0
rape; Preemergence, Rate 125 g/ha
  Rape plant response rating (0 to 10 scale): 0
rape; [3]
  Rape plant response rating: 0
rape; [9]
  Plant response rating, Rape: 0
soybean; [1]
  Plant response rating, Soybean: 1
soybean; [4]
  Soybean plant response rating: 0
soybean; Preemergence, Rate 125 g/ha
  Soybean plant response rating (0 to 10 scale): 0
soybean; [5]
  Soybean plant response rating: 0
soybean; [6]
  Soybean plant response rating: 0
soybean; [7]
  Soybean plant response rating: 1
soybean; [9]
  Plant response rating, Soybean: 2
Sugar beet; [1]
  Plant response rating, Sugarbeets: 0
Sugar beet; [4]
  Sugarbeets plant response rating: 0
Sugar beet; Preemergence, Rate 125 g/ha
  Sugarbeets plant response rating (0 to 10 scale): 0
Sugar beet; [5]
  Sugarbeets plant response rating: 0
Sugar beet; [6]
  Sugarbeets plant response rating: 0
Sugar beet; [7]
  Sugarbeets plant response rating: 0
Sugar beet; [9]
  Plant response rating, Sugarbeets: 0
velvetleaf; [1]
  Plant response rating, Velvetleaf: 0
velvetleaf; [4]
  Velvetleaf plant response rating: 0
velvetleaf; Preemergence, Rate 125 g/ha
  Velvetleaf plant response rating (0 to 10 scale): 0
velvetleaf; [5]
  Velvetleaf plant response rating: 0
velvetleaf; [6]
  Velvetleaf plant response rating: 0
velvetleaf; [7]
  Velvetleaf plant response rating: 0
velvetleaf; [9]
  Plant response rating, Velvetleaf: 0
wheat; [1]
  Plant response rating, Wheat: 0
wheat; [4]
  Wheat plant response rating: 0
wheat; Preemergence, Rate 125 g/ha
  Wheat plant response rating (0 to 10 scale): 0
wheat; [5]
  Wheat plant response rating: 0
wheat; [6]
  Wheat plant response rating: 0
wheat; [7]
  Wheat plant response rating: 0
wheat; [9]
  Plant response rating, Wheat: 0
Wild oat; [1]
  Plant response rating, Wild oats: 0
Wild oat; [4]
  Wild oats plant response rating: 0
Wild oat; Preemergence, Rate 125 g/ha
  Wild oats plant response rating (0 to 10 scale): 0
Wild oat; [5]
  Wild oats plant response rating: 0
Wild oat; [6]
  Wild oats plant response rating: 0
Wild oat; [7]
  Wild oats plant response rating: 0
Wild oat; [9]
  Plant response rating, Wild oats: 0
Purple nutsedge; [1]
  Plant response rating, Nutsedge: 0
Purple nutsedge; [4]
  Nutsedge plant response rating: 0
Purple nutsedge; [5]
  Nutsedge plant response rating: 0
Purple nutsedge; [7]
  Nutsedge plant response rating: 0
Purple nutsedge; [9]
  Plant response rating, Nutsedge: 0
rice; [10]
  Rice plant response rating: 0
rice; [11]
  Rice plant response rating: 0
rice; [12]
  Rice plant response rating: 0
rice; [13]
  Rice plant response rating: 0
Smallflower flatsedge; [10]
  S. Flatsedge plant response rating: 0
Smallflower flatsedge; [11]
  S. Flatsedge plant response rating: 0
Smallflower flatsedge; [12]
  S. Flatsedge plant response rating: 0
Smallflower flatsedge; [13]
  S. Flatsedge plant response rating: 0
Duck salad; [10]
  Ducksalad plant response rating: 0
Duck salad; [11]
  Ducksalad plant response rating: 0
Duck salad; [12]
  Ducksalad plant response rating: 0
Duck salad; [13]
  Ducksalad plant response rating: 0
bamyardgrass; [10]
  Barnyardgrass plant response rating: 0
bamyardgrass; [11]
  Barnyardgrass plant response rating: 0
bamyardgrass; [12]
  Barnyardgrass plant response rating: 0
bamyardgrass; [13]
  Barnyardgrass plant response rating: 0
